# pIC50: −log10 of the molar value.
# System: NCI-H1341 complex spheroids, percent test/control
# Test: Anticancer human tumor NCI-H1341 cell line growth inhibition [AhR];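 further: spheroids exposed to agents for seven days before readout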
# Conditions: for pIC50: curve of first compound; for viability, T/C: stronger effect = lower value
# Excerpt: Multicellular complex tumor spheroid response to aryl hydrocarbon receptor antagonists in combination with a variety of drugs and investigational agents in selected tumor cell lines
# The current study was undertaken to assess response to aryl hydrocarbon receptor antagonists in combination with standard-of-care drugs and investigational agents in solid tumor complex spheroid models. Complex spheroids include a stromal component modeled by human endothelial cells (HUVEC) and fibroblasts modeled by human mesenchymal stem cells (MSCs). The concentration ranges selected for each drug and investigational agent were based upon clinically achievable concentrations if the clinical Cmax of the agent was known.
# Compounds. The drugs and investigational agents: BAY 2416964 (NSC825713), GNF351 (NSC835774), CH-223191 (NSC835775), CPI-455 (NSC825282), aza-TdCyd (NSC777586), decitabine (NSC127716), belinostat (NSC758774), entinostat (NSC756642), pevonedistat (NSC761192), tazemetostat (NSC777109), talazoparib (NSC765396), olaparib (NSC753686), selinexor (NSC780203), nedisertib (M3814, NSC802822), bortezomib (NSC756655), venetoclax (NSC766270), doxorubicin (NSC123127), elimusertib (BAY189344, NSC800525), ceralasertib (AZD6738, NSC777638), TAK-243 (NSC785004), alisertib (NSC759677), etoposide (NSC141540), topotecan (NSC609699), eribulin (NSC707389), gemcitabine (NSC613327), carboplatin (NSC241240), cisplatin (NSC119875), and SN-38 (NSC673596) were obtained from the National Cancer Institute (NCI) Developmental Therapeutics Program Chemical Repository (32). The FDA-approved anticancer drug set is available from the Developmental Therapeutics Program at https://dtp.cancer.gov/organization/dscb/obtaining/available plates.htm. […] The stock solutions were prepared in dimethyl sulfoxide (DMSO, Sigma-Aldrich, St. Louis, MO, cat. D2650), except for the platinum compounds which were prepared in saline (Quality Biological, Gaithersburg, MD, cat. 114-055-101), at 800-fold the tested concentration and stored at -70 degrees C prior to their use. All drugs and investigational agents were tested over a range starting from a high concentration at or near the clinical Cmax and decreasing in half-log increments. If the clinical Cmax for an agent had not been determined, the highest concentration tested was 10 microM (Table 1).
# Cell Culture. All cells were maintained in an incubator at 37 degrees C and 5% CO2 with 95% humidity. The PDC lines were cultured according to standard operating procedures established by the NCI PDMR (https://pdmr.cancer.gov). Briefly, all PDCs were thawed and cultured in Matrigel-coated flasks prepared with a working solution of 1X Ham's F-12 nutrient mix, without supplementation (Invitrogen, Waltham, MA, cat. 11765054), 100 U/mL penicillin-streptomycin (Invitrogen, cat. 15140122), and 2.5% Matrigel (Corning Inc., Corning, NY, cat. 354248) for the first three passages. All PDCs were cultured in complete DMEM/F-12 media containing advanced DMEM/F-12 (Invitrogen, cat. 12634028), 4.9% defined fetal bovine serum, heat inactivated (HyClone Laboratories Inc., Logan, UT, cat. SH30070.03HI), 389 ng/mL hydrocortisone (Sigma-Aldrich, cat. H4001), 9.7 ng/mL human EGF recombinant protein (Invitrogen, cat. PHG0313), 23.4 microg/mL adenine (Sigma-Aldrich, cat. A2786), 97.3 U/mL penicillin-streptomycin (Invitrogen, cat. 15140122), 1.9 mM L-glutamine (Invitrogen, cat. 25030081), and 9.7 microM Y-27632 dihydrochloride (Tocris Bioscience, Bristol, United Kingdom, cat. 1254). The PDCs were cultured in complete DMEM/F12 media without 10 microM Y-27632 dihydrochloride for at least two passages prior to the screen. The established cell lines NCI-H1341 and […] were cultured in DMEM/F-12, HEPES (Invitrogen, cat. 11330032), 5% defined fetal bovine serum (HyClone Laboratories Inc., cat. SH30070.03), ITS premix universal culture supplement [insulin (5 microg/mL), transferrin (5 microg/mL), and selenious acid (5 ng/mL)] […]
# [1] = second compound 0.1 µM, first compound 0.0316 µM
# [2] = second compound 0.1 µM, first compound 0.1 µM
# [3] = second compound 0.1 µM, first compound 0.316 µM
# [4] = second compound 0.1 µM, first compound 1 µM
# [5] = second compound 0.1 µM, first compound 3.16 µM
# [6] = second compound 0.1 µM, first compound 10 µM
# [7] = second compound 0.316 µM, first compound 0.0316 µM
# [8] = second compound 0.316 µM, first compound 0.1 µM
# [9] = second compound 0.316 µM, first compound 0.316 µM
# [10] = second compound 0.316 µM, first compound 1 µM
# [11] = second compound 0.316 µM, first compound 3.16 µM
# [12] = second compound 0.316 µM, first compound 10 µM
# [13] = second compound 1 µM, first compound 0.0316 µM
# [14] = second compound 1 µM, first compound 0.1 µM
# [15] = second compound 1 µM, first compound 0.316 µM
# [16] = second compound 1 µM, first compound 1 µM
# [17] = second compound 1 µM, first compound 3.16 µM
# [18] = second compound 1 µM, first compound 10 µM
# [19] = second compound 3.16 µM, first compound 0.0316 µM
# [20] = second compound 3.16 µM, first compound 0.1 µM
# [21] = second compound 3.16 µM, first compound 0.316 µM
# [22] = second compound 3.16 µM, first compound 1 µM
# [23] = second compound 3.16 µM, first compound 3.16 µM
# [24] = second compound 3.16 µM, first compound 10 µM
# [25] = second compound 10 µM, first compound 0.0316 µM
# [26] = second compound 10 µM, first compound 0.1 µM
# [27] = second compound 10 µM, first compound 0.316 µM
# [28] = second compound 10 µM, first compound 1 µM
# [29] = second compound 10 µM, first compound 3.16 µM
# [30] = second compound 10 µM, first compound 10 µM
structure (smiles),measurement,setting,value
CCc1c2c(nc3ccc(O)cc13)-c1cc3c(c(=O)n1C2)COC(=O)[C@]3(O)CC + CC(CO)NC(=O)c1cc(-c2ccc(Cl)cc2)nn(-c2cnn(C)c2)c1=O,pIC50,second compound 0.1 µM,7.91
same,pIC50,second compound 0.316 µM,8.10
same,pIC50,second compound 1 µM,8.02
same,pIC50,second compound 3.16 µM,8.29
same,pIC50,second compound 10 µM,8.46
same,"viability, T/C","second compound 0.1 µM, first compound 0.000949 µM",67.7%
same,"viability, T/C","second compound 0.1 µM, first compound 0.003 µM",74%
same,"viability, T/C","second compound 0.1 µM, first compound 0.00949 µM",46.6%
same,"viability, T/C","second compound 0.1 µM, first compound 0.03 µM",38.8%
same,"viability, T/C","second compound 0.1 µM, first compound 0.0949 µM",30.7%
same,"viability, T/C","second compound 0.1 µM, first compound 0.3 µM",16.9%
same,"viability, T/C","second compound 0.316 µM, first compound 0.000949 µM",71.8%
same,"viability, T/C","second compound 0.316 µM, first compound 0.003 µM",61.8%
same,"viability, T/C","second compound 0.316 µM, first compound 0.00949 µM",48.1%
same,"viability, T/C","second compound 0.316 µM, first compound 0.03 µM",33.4%
same,"viability, T/C","second compound 0.316 µM, first compound 0.0949 µM",26.5%
same,"viability, T/C","second compound 0.316 µM, first compound 0.3 µM",16%
same,"viability, T/C","second compound 1 µM, first compound 0.000949 µM",62.8%
same,"viability, T/C","second compound 1 µM, first compound 0.003 µM",67.6%
same,"viability, T/C","second compound 1 µM, first compound 0.00949 µM",48.2%
same,"viability, T/C","second compound 1 µM, first compound 0.03 µM",31.4%
same,"viability, T/C","second compound 1 µM, first compound 0.0949 µM",29.5%
same,"viability, T/C","second compound 1 µM, first compound 0.3 µM",17.4%
same,"viability, T/C","second compound 3.16 µM, first compound 0.000949 µM",73%
same,"viability, T/C","second compound 3.16 µM, first compound 0.003 µM",53.2%
same,"viability, T/C","second compound 3.16 µM, first compound 0.00949 µM",39%
same,"viability, T/C","second compound 3.16 µM, first compound 0.03 µM",37.4%
same,"viability, T/C","second compound 3.16 µM, first compound 0.0949 µM",26.5%
same,"viability, T/C","second compound 3.16 µM, first compound 0.3 µM",14.1%
same,"viability, T/C","second compound 10 µM, first compound 0.000949 µM",61%
same,"viability, T/C","second compound 10 µM, first compound 0.003 µM",47.9%
same,"viability, T/C","second compound 10 µM, first compound 0.00949 µM",43.8%
same,"viability, T/C","second compound 10 µM, first compound 0.03 µM",32.4%
same,"viability, T/C","second compound 10 µM, first compound 0.0949 µM",23.4%
same,"viability, T/C","second compound 10 µM, first compound 0.3 µM",10.8%
Nc1ccn(C2OC(CO)C(O)C2(F)F)c(=O)n1 (stereo not given) + CC(CO)NC(=O)c1cc(-c2ccc(Cl)cc2)nn(-c2cnn(C)c2)c1=O,pIC50,second compound 0.1 µM,> 7.50
same,pIC50,second compound 0.316 µM,> 7.50
same,pIC50,second compound 1 µM,> 7.50
same,pIC50,second compound 3.16 µM,> 7.50
same,pIC50,second compound 10 µM,> 7.50
same,"viability, T/C",[1],28%
same,"viability, T/C",[2],28%
same,"viability, T/C",[3],27.7%
same,"viability, T/C",[4],25.3%
same,"viability, T/C",[5],27.3%
same,"viability, T/C",[6],26.4%
same,"viability, T/C",[7],30.9%
same,"viability, T/C",[8],29.1%
same,"viability, T/C",[9],25.6%
same,"viability, T/C",[10],26.9%
same,"viability, T/C",[11],24.4%
same,"viability, T/C",[12],24.1%
same,"viability, T/C",[13],28.6%
same,"viability, T/C",[14],29.3%
same,"viability, T/C",[15],30.5%
same,"viability, T/C",[16],23.8%
same,"viability, T/C",[17],26.1%
same,"viability, T/C",[18],25.9%
same,"viability, T/C",[19],30.1%
same,"viability, T/C",[20],29.1%
same,"viability, T/C",[21],30%
same,"viability, T/C",[22],24%
same,"viability, T/C",[23],25.3%
same,"viability, T/C",[24],27%
same,"viability, T/C",[25],33.6%
same,"viability, T/C",[26],29.8%
same,"viability, T/C",[27],27.4%
same,"viability, T/C",[28],24.3%
same,"viability, T/C",[29],22.3%
same,"viability, T/C",[30],21.4%
O=C(c1cc(Cc2n[nH]c(=O)c3ccccc23)ccc1F)N1CCN(C(=O)C2CC2)CC1 + CC(CO)NC(=O)c1cc(-c2ccc(Cl)cc2)nn(-c2cnn(C)c2)c1=O,pIC50,second compound 0.1 µM,< 5.00
same,pIC50,second compound 0.316 µM,< 5.00
same,pIC50,second compound 1 µM,< 5.00
same,pIC50,second compound 3.16 µM,< 5.00
same,pIC50,second compound 10 µM,< 5.00
same,"viability, T/C",[1],89.5%
same,"viability, T/C",[2],98.4%
same,"viability, T/C",[3],93.7%
same,"viability, T/C",[4],89.2%
same,"viability, T/C",[5],82.4%
same,"viability, T/C",[6],70.6%
same,"viability, T/C",[7],96.1%
same,"viability, T/C",[8],93.6%
same,"viability, T/C",[9],91.6%
same,"viability, T/C",[10],80.1%
same,"viability, T/C",[11],77.1%
same,"viability, T/C",[12],72.7%
same,"viability, T/C",[13],80.6%
same,"viability, T/C",[14],105%
same,"viability, T/C",[15],97.3%
same,"viability, T/C",[16],81.5%
same,"viability, T/C",[17],86.8%
same,"viability, T/C",[18],74.6%
same,"viability, T/C",[19],94.4%
same,"viability, T/C",[20],90.6%
same,"viability, T/C",[21],94.8%
same,"viability, T/C",[22],75.9%
same,"viability, T/C",[23],84.2%
same,"viability, T/C",[24],60.7%
same,"viability, T/C",[25],70.2%
same,"viability, T/C",[26],77.5%
same,"viability, T/C",[27],85%
same,"viability, T/C",[28],65.9%
same,"viability, T/C",[29],71.9%
same,"viability, T/C",[30],58.6%
